The text below walks through data of PubChem BioAssay (NCI).

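How tested: cells in 96-well plates exposed to compound for 48 hours at five concentrations. TGI marks complete inhibition of growth.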

Some test systems named below: 786-0 renal; ACHN renal; KM12 colon; MOLT-4 leukemia; OVCAR-4 ovarian; OVCAR-5 ovarian; OVCAR-8 ovarian; SF-295 CNS; SNB-19 CNS; UACC-257 melanoma.
Common to all, as to experiment: NCI anticancer screen, dose series, 48 h

For `COc1ccc(/C=C2\CCC(C)(CN(C)C)C2=O)cc1` (stereo not given), the TGI with 786-0 renal, in the experiment on ACHN renal, in the experiment on KM12 colon, with MOLT-4 leukemia, in the experiment with OVCAR-4 ovarian and in the experiment with OVCAR-5 ovarian was over 100 µM throughout. In addition, the TGI in the experiment on OVCAR-8 ovarian, in the experiment on SF-295 CNS, with SNB-19 CNS and in the experiment on UACC-257 melanoma was over 100 µM each time.
As to `CC1=C(C(=O)NCc2ccccc2)C(c2ccccc2[N+](=O)[O-])C(C(=O)NCc2ccccc2)=C(C)N1`, the TGI was found to be 25.4 µM in the experiment with 786-0 renal; 27.4 µM with ACHN renal; 23.1 µM with KM12 colon; 50.5 µM in the experiment on MOLT-4 leukemia; 22.9 µM in the experiment with OVCAR-4 ovarian; 36.6 µM with OVCAR-5 ovarian. Also, the TGI amounted to 43.3 µM in the experiment on OVCAR-8 ovarian, 25.4 µM in the experiment with SF-295 CNS, 27.5 µM in the experiment on SNB-19 CNS and 29.4 µM with UACC-257 melanoma.
